Experimental data: patent US20080261994A1, “CYCLOPROPANE COMPOUNDS AND PHARMACEUTICAL USE THEREOF” (Japan Tobacco Inc., priority 2003, published 2008)

Key:
Assay type in all cases: biochemical
aggrecanase-1 = target: T1, aggrecanase-1 (Homo sapiens, UniProt O75173); assay: Aggrecanase-1 inhibitory action (Particle Assay, GAG release from aggrecan-containing polyacrylamide particles); settings: Experimental Example 1; read-out: IC50 AG1
T1 sequence (O75173 213-837): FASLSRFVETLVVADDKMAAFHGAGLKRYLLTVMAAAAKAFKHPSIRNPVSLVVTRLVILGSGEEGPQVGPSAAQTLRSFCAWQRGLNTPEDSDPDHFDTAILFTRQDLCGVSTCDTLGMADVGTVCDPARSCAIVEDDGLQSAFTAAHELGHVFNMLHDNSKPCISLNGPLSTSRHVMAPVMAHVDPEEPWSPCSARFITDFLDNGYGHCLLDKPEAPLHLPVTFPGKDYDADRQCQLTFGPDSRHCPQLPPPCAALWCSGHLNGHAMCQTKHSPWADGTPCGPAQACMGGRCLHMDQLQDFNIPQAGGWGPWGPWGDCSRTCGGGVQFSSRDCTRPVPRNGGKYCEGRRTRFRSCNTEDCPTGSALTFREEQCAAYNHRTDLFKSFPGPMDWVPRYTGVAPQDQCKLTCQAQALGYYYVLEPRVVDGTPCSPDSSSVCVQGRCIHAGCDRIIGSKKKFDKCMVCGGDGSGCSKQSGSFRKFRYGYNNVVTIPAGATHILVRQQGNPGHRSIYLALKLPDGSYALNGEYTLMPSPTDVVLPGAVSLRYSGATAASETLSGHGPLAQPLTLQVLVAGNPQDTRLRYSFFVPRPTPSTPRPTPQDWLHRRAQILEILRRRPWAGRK
Method in brief: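 Enzyme and compound incubated with aggrecan-containing polyacrylamide particles in Tris-HCl buffer at 37° C for 15 h. Released GAG in supernatant measured with 1,9-dimethylmethylene blue at 595 nm against chondroitin sulfate standard; % inhibition from enzyme-free and inhibitor-free wells, reported as TC50 (μM).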

MMP-1 = target: T2, MMP-1 (Homo sapiens, UniProt P03956); assay: MMP-1 inhibitory action (Type I collagen Activity Measurement kit, FITC-labeled collagen type I); settings: Experimental Example 2; read-out: IC50 MMP1
T2 sequence (P03956 100-469): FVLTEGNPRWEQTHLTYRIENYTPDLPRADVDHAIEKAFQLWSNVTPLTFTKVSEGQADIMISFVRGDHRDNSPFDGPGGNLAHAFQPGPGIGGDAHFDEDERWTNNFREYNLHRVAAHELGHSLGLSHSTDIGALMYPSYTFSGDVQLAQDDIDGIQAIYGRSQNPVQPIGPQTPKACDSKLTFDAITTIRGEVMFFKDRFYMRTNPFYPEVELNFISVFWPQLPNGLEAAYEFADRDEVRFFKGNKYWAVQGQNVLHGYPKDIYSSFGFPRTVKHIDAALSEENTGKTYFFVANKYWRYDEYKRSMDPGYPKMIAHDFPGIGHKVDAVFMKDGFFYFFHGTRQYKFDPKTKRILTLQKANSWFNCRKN

Recombinant Human MMP-13 = target: T3, Recombinant Human MMP-13 (Homo sapiens, UniProt P45452); assay: MMP-13 inhibitory activity (MMP-13 specific fluorescent substrate with quencher); settings: Experimental Example 3; read-out: IC50 MMP13
T3 construct: purchased R&D systems 511-MM
Method in brief: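 Recombinant human MMP-13 with test compound, reaction started with quenched fluorogenic peptide 7-MCA-Pro-CHA-Gly-NVal-His-Ala-DPA in Tris-HCl buffer, 1 h at 25 °C, stopped with acetic acid. Fluorescence at Ex 325/Em 405 nm; % inhibition versus enzyme-free and inhibitor-free wells, reported as IC50 (μM).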

Compound | IC50 (aggrecanase-1) [nM] | IC50 (MMP-1) [nM] | IC50 (Recombinant Human MMP-13) [nM]
CCNC(=O)NCC1(c2ccccc2)CC1(NS(=O)(=O)c1ccc(-c2ccc(Cl)cc2)s1)C(=O)O (stereo not drawn) [Example 2-396] | < 1000 | ≥ 10000 | < 1000
CC(C)C(=O)NCC1(c2ccccc2)CC1(NS(=O)(=O)c1ccc(-c2ccc(Cl)cc2)s1)C(=O)O (stereo not drawn) [Example 2-397] | < 1000 | ≥ 10000 | < 1000
COCC(=O)NCC1(c2ccccc2)CC1(NS(=O)(=O)c1ccc(-c2ccc(Cl)cc2)s1)C(=O)O (stereo not drawn) [Example 2-398] | < 1000 | ≥ 10000 | < 1000
O=C(CO)NCC1(c2ccccc2)CC1(NS(=O)(=O)c1ccc(-c2ccc(Cl)cc2)s1)C(=O)O (stereo not drawn) [Example 2-399] | < 1000 | ≥ 1000 | < 1000
O=C1COCCN1CC1(c2ccccc2)CC1(NS(=O)(=O)c1ccc(-c2ccc(Cl)cc2)s1)C(=O)O (stereo not drawn) [Example 2-400] | ≥ 1000 | ≥ 1000 | < 1000
CC1[C@H](c2ccccc2)[C@]1(NS(=O)(=O)c1ccc(-c2cc(C(F)F)on2)cc1)C(=O)O (stereo partly drawn) [Example 2-401] | < 100 | < 1000 | < 100
COCc1cc(-c2ccc(S(=O)(=O)N[C@@]3(C(=O)O)C[C@]3(C)c3ccccc3)s2)no1 [Example 2-403] | < 1000 | < 1000 | < 100
COCc1cc(-c2ccc(S(=O)(=O)N[C@@]3(C(=O)O)C(C)[C@@H]3c3ccccc3)s2)no1 (stereo partly drawn) [Example 2-404] | < 100 | < 1000 | < 100
O=C(O)COCC1(c2ccccc2)CC1(NS(=O)(=O)c1ccc(-c2ccc(Cl)cc2)s1)C(=O)O (stereo not drawn) [Example 2-405] | < 100 | ≥ 10000 | < 1000
C[C@]1(c2ccccc2)C[C@@]1(NS(=O)(=O)c1ccc(-c2ccc(Cl)cc2F)s1)C(=O)O [Example 2-406] | < 100 | < 1000 | < 100
CC1[C@H](c2ccccc2)[C@]1(NS(=O)(=O)c1ccc(-c2ccc(Cl)cc2F)s1)C(=O)O (stereo partly drawn) [Example 2-407] | < 100 | < 1000 | < 100
CC(C)c1cc(-c2ccc(S(=O)(=O)N[C@@]3(C(=O)O)C(C)[C@@H]3c3ccccc3)s2)no1 (stereo partly drawn) [Example 2-408] | < 100 | < 1000 | < 100
CCOC(=O)CSCC1(c2ccccc2)CC1(NS(=O)(=O)c1ccc(-c2cc(C(F)(F)F)on2)s1)C(=O)O (stereo not drawn) [Example 2-409] | < 1000 | < 1000 | < 100
O=C(O)CSCC1(c2ccccc2)CC1(NS(=O)(=O)c1ccc(-c2cc(C(F)(F)F)on2)s1)C(=O)O (stereo not drawn) [Example 2-410] | < 100 | ≥ 1000 | ≥ 1000
O=C(O)C1(NS(=O)(=O)c2ccc(-c3ccc(Cl)cc3)s2)C2CCC(O)c3ccccc3C21 (stereo not drawn) [Example 2-411] | < 100 | < 1000 | < 100
O=C(O)C1(NS(=O)(=O)c2ccc(-c3ccc(Cl)cc3)s2)C2CCC(O)c3ccccc3C21 (stereo not drawn) [Example 2-412] | < 100 | ≥ 1000 | < 100
C[C@]1(c2ccccc2)C[C@@]1(NS(=O)(=O)c1ccc(-c2ccc(F)c(Cl)c2)s1)C(=O)O [Example 2-413] | < 100 | ≥ 1000 | < 1000

The next lines start with the values.

IC50 (aggrecanase-1) [nM] | IC50 (MMP-1) [nM] | IC50 (Recombinant Human MMP-13) [nM] | Compound
< 1000 | ≥ 1000 | < 1000 | C[C@]1(c2ccccc2)C[C@@]1(NS(=O)(=O)c1ccc(-c2ncc(Br)cn2)s1)C(=O)O [Example 2-414]
< 1000 | ≥ 1000 | < 1000 | C[C@]1(c2ccccc2)C[C@@]1(NS(=O)(=O)c1ccc(-c2ccc(F)cn2)s1)C(=O)O [Example 2-416]
< 100 | < 1000 | < 100 | CC1[C@H](c2ccccc2)[C@]1(NS(=O)(=O)c1ccc(-c2cc(N(C)C)on2)s1)C(=O)O (stereo partly drawn) [Example 2-419]
≥ 1000 | ≥ 10000 | ≥ 1000 | C[C@]1(c2ccccc2)C[C@@]1(NS(=O)(=O)c1ccc(-c2ccc(F)c(C#N)c2)s1)C(=O)O [Example 2-420]
≥ 1000 | ≥ 10000 | ≥ 1000 | C[C@]1(c2ccccc2)C[C@@]1(NS(=O)(=O)c1ccc(N2CCOCC2)s1)C(=O)O [Example 2-421]
< 100 | < 1000 | < 1000 | C[C@]1(c2ccccc2)C[C@@]1(NS(=O)(=O)c1ccc(-c2cc(C(F)F)no2)s1)C(=O)O [Example 2-422]
< 1000 | < 1000 | < 100 | CN(C)c1cc(-c2ccc(S(=O)(=O)N[C@@]3(C(=O)O)C[C@]3(C)c3ccccc3)s2)no1 [Example 2-423]
≥ 10000 | < 1000 | < 1000 | C#Cc1ccc(S(=O)(=O)N[C@@]2(C(=O)O)C(C)[C@@H]2c2ccccc2)s1 (stereo partly drawn) [Example 2-424]
≥ 10000 | ≥ 10000 | ≥ 1000 | CC(=O)c1ccc(S(=O)(=O)N[C@@]2(C(=O)O)C(C)[C@@H]2c2ccccc2)s1 (stereo partly drawn) [Example 2-425]
< 1000 | ≥ 1000 | < 100 | CC1[C@H](c2ccccc2)[C@]1(NS(=O)(=O)N1CCN(c2ccc(Cl)cc2)CC1)C(=O)O (stereo partly drawn) [Example 2-426]
≥ 10000 | < 1000 | ≥ 1000 | CC1[C@H](c2ccccc2)[C@]1(NS(=O)(=O)c1ccc(Br)s1)C(=O)O (stereo partly drawn) [Example 2-427]
< 1000 | ≥ 1000 | < 100 | CC1[C@H](c2ccccc2)[C@]1(NS(=O)(=O)N1CCN(c2ccc(C(F)(F)F)cc2)CC1)C(=O)O (stereo partly drawn) [Example 2-428]
< 1000 | ≥ 1000 | < 1000 | COCCOCC1(c2ccccc2)CC1(NS(=O)(=O)c1ccc(-c2ccc(Cl)cc2)s1)C(=O)O (stereo not drawn) [Example 2-429]
< 100 | ≥ 1000 | < 100 | CN1CCC2C(c3ccccc31)C2(NS(=O)(=O)c1ccc(-c2ccc(Cl)cc2)s1)C(=O)O (stereo not drawn) [Example 2-430]
< 1000 | ≥ 1000 | < 1000 | O=C(O)C1(NS(=O)(=O)c2ccc(-c3ccc(Cl)cc3)s2)C2Cc3ccccc3C21 (stereo not drawn) [Example 2-431]
< 100 | ≥ 1000 | < 1000 | CSCC1(c2ccccc2)CC1(NS(=O)(=O)c1ccc(-c2ccc(Cl)cc2)s1)C(=O)O (stereo not drawn) [Example 2-432]
< 100 | < 1000 | < 100 | CC1[C@H](c2ccccc2)[C@]1(NS(=O)(=O)c1ccc(-c2cc(C3CC3)on2)s1)C(=O)O (stereo partly drawn) [Example 2-433]
< 100 | ≥ 1000 | < 1000 | C[C@]1(c2ccccc2)C[C@@]1(NS(=O)(=O)c1ccc(-c2ccc(Cl)c(F)c2)s1)C(=O)O [Example 2-434]
< 100 | < 1000 | < 100 | CC1[C@H](c2ccccc2)[C@]1(NS(=O)(=O)c1ccc(-c2ccc(Cl)c(F)c2)s1)C(=O)O (stereo partly drawn) [Example 2-435]
≥ 1000 | ≥ 10000 | ≥ 1000 | CC1CCC(c2ccc(S(=O)(=O)N[C@@]3(C(=O)O)C[C@]3(C)c3ccccc3)cc2)CC1 (stereo partly drawn) [Example 2-436]
< 100 | < 1000 | < 100 | O=C(O)C1(NS(=O)(=O)c2ccc(-c3cc(C(F)(F)F)on3)s2)C2CCC(O)c3ccccc3C21 (stereo not drawn) [Example 2-437]
